Structures can show the parent of a compound that is named as a salt.
Test system: whole blood
Assay: Transcriptional profiling on Affymetrix GeneChips, single dose, naïve mice: whole blood
Type: in vivo, C57BL/6 mice
Details: for Number of differentially expressed genes identified: Whole blood: Naïve, Single Dose
Description: Treated mice were sacrificed at 2, 7, or 12 hours. Tissues (liver, spleen, kidney, jejunum, cortex, hippocampus, striatum and whole blood) were collected and analyzed by transcriptional profiling on mouse Affymetrix GeneChips. […] While the experiments were performed in mice, the human homolog of the identified murine gene transcript is included in the tables. Additional genes that were identified in the study are provided in APPENDIX A, filed herewith on even date, the contents of which are herein incorporated by reference in their entirety. Additional studies are described in the Examples, and genes identified in the studies are provided in […], and APPENDIX E filed herewith on even date, the contents of each of which are herein incorporated by reference in their entirety. […] Tissues (liver, spleen, kidney, jejunum, cortex, hippocampus, striatum and whole blood) were collected and analyzed by transcriptional profiling on mouse Affymetrix GeneChips. […] Animals were exposed to CO2 and whole blood collected via cardiac puncture. Two 100 μl aliquots of whole blood were collected in 1.5 mL microcentrifuge tubes and snap frozen in liquid nitrogen. Peripheral (liver, spleen, kidney and jejunum) and CNS brain (cerebellum, hippocampus, striatum and cortex) tissues were harvested and snap frozen in liquid nitrogen, with special care taken to collect tissues of similar size and from the same location. All samples were stored at -80° C. until RNA extraction was conducted. 50 ul of snap frozen mouse blood was re-suspended in lysis buffer with proteinase K and arrayed into deep-well plates for automated RNA extraction. RNA extractions were completed on […] (Beckman Coulter, Indianapolis, Ind.) using Agencourt RNAdvance Blood kit (Part number A35604) according to the manufacturer's specifications. RNA integrity was assessed using the HT RNA reagent kit (Part number 760410, Caliper Life Sciences, Hopkinton, Mass.) using a LabChip GX (PerkinElmer, Waltham, Mass.). RNA samples with a RQS score of >8.0 were considered high quality for downstream microarray processing. […] Two micrograms of biotin labeled […] probe were hybridized to Affymetrix GeneChip Affymetrix HT_MG-430_PM plate arrays with modified conditions as described in […] et al. Washing and staining of the hybridized arrays were completed as described in the GeneChip Expression analysis technical manual for HT plate arrays using the Genechip® Array Station (Affymetrix, Santa Clara, Calif.) with modifications as described in […] et al. The processed GeneChip® plate arrays were scanned using GeneTitan scanner (Affymetrix, Santa Clara, Calif.). Affymetrix scans were subject to quality control (QC) measures. These tests included a visual inspection of the distribution of raw signal intensities and an assessment of RNA degradation, relative log expression (RLE), and normalized unsealed standard error (NUSE). All sample scans that passed these QC metrics were included in the analysis. All CEL files were subjected to GC-content-based Robust Multi-array Average (GCRMA) normalization (version 2.20.0) (Irizarry R A, et al. Nucleic Acids Res 2003; 31:e15; Li C, et al. Genome Biol 2001; 2:[…]0032). […] Stat Appl Genet Mol Biol 2004; 3:Article3). […] Springer Science+Business Media 2005).

[1] = 100 mpk, vs Vehicle, 2 h after last dosing
[2] = 100 mpk, vs Vehicle, 7 h after last dosing
[3] = 100 mpk, vs Vehicle, 12 h after last dosing
[4] = whole blood, 100DMF-vs-Veh, 2 h
[5] = whole blood, 100DMF-vs-Veh, 12 h
[6] = whole blood, 100MMF-vs-Veh, 12 h

Compound: COC(=O)/C=C/C(=O)OC [DMF, dimethyl fumarate]
- Number of genes, DMF Only / MMF Only (Blood): 6
- Cpsf2 (1420937_PM_at) differential expression (Blood, 2 hr): −1.65
- Gzma (1417898_PM_a_at) differential expression (Blood, 12 hr): 1.92
- Klrb1b (1445399_PM_at) differential expression (Blood, 12 hr): 1.65
- Klrc1 (1425005_PM_at) differential expression (Blood, 12 hr): 1.85
- Klre1 (1458642_PM_at) differential expression (Blood, 12 hr): 1.85
- Ncr1 (1422089_PM_at) differential expression (Blood, 12 hr): 1.86
- Number of differentially expressed genes identified: Whole blood (100 mpk DMF-vs-100 mpk MMF, 2 h after last dosing): 0
- Number of differentially expressed genes identified: Whole blood (100 mpk DMF-vs-100 mpk MMF, 7 h after last dosing): 1
- Number of differentially expressed genes identified: Whole blood (100 mpk DMF-vs-100 mpk MMF, 12 h after last dosing): 0
- Number of differentially expressed genes identified: Whole blood [1]: 2
- Number of differentially expressed genes identified: Whole blood [2]: 0
- Number of differentially expressed genes identified: Whole blood [3]: 5
- differentially expressed genes (whole blood, 100DMF-vs-100MMF, 2 h): None
- FC Lman1 (1444037_PM_at) (whole blood, 100DMF-vs-100MMF, 7 h): 1.63
- differentially expressed genes (whole blood, 100DMF-vs-100MMF, 12 h): None
- FC Cpsf2 (1420937_PM_at) [4]: −1.65
- FC probe 1441373_PM_at [4]: −1.70
- FC Gzma (1417898_PM_a_at) [5]: 1.92
- FC Klrb1b (1445399_PM_at) [5]: 1.65
- FC Klrc1 (1425005_PM_at) [5]: 1.85
- FC Klre1 (1458642_PM_at) [5]: 1.85
- FC Ncr1 (1422089_PM_at) [5]: 1.86
- differentially expressed genes (whole blood, 100DMF-vs-Veh, 7 h): None

Compound: COC(=O)/C=C/C(=O)O [MMF, monomethyl fumarate]
- Number of genes, DMF Only / MMF Only (Blood): 2
- Bcl3 (1418133_PM_at) differential expression (Blood, 2 hr): −1.23
- Sdc1 (1415943_PM_at) differential expression (Blood, 12 hr): −1.96
- Number of differentially expressed genes identified: Whole blood [1]: 1
- Number of differentially expressed genes identified: Whole blood [2]: 0
- Number of differentially expressed genes identified: Whole blood [3]: 2
- FC Bcl3 (1418133_PM_at) (whole blood, 100MMF-vs-Veh, 2 h): −1.67
- FC 0710007G10Rik /// Tmem175 (1435109_PM_at) [6]: −1.52
- FC Sdc1 (1415943_PM_at) [6]: −1.96
- Bcl3 mRNA fold change vs vehicle (whole blood, 2 hr after single 100 mg/kg oral dose): −1.23
- Sdc1 mRNA fold change vs vehicle (whole blood, 12 hr after single 100 mg/kg oral dose): −1.96

Reference: patent US20160115540A1, “PRODRUGS AND DRUGS” (Biogen MA Inc., priority 2013, published 2016)
